Assays:
[1] = system: bulrush; assay: Test Example 4: low dosage test for rice paddy weeds; format: in vivo, Scirpus juncoides; conditions: 300 g/ha as an active ingredient; plants treated at the one leaf stage; 21 days after treatment; vs untreated control
How it was run: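 Bulrush sown in clay loam pots, flooded to 5 cm water in a hot house, treated at the one-leaf stage with formulated compound at 300 g/ha. Efficacy scored 0–4 against untreated control 21 days after treatment (4 = 90–100%, 0 = 0% inhibition).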

[2] = system: false pimpernel; assay: Test Example 1: herbicidal efficacy on rice paddy weeds pre-emergence; format: in vivo, Lindernia pyxidaria; conditions: 21 days
[3] = system: paddy rice plant (cultivar: Nihonbare); assay: Test Example 3: phytotoxicity test for transplanted paddy rice plant; format: in vivo; conditions: transplanted rice, 21 days after treatment
How it was run: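 Clay loam soil was placed in a 75 cm^2 plastic pot and flooded to a water depth of 5 cm. Two Nihonbare paddy rice plants at the two-leaf stage were transplanted 1 cm deep and grown in a hot house. After treatment, pots stayed in the hot house for 21 days, and phytotoxicity was then graded against an untreated control.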

[4] = system: transplanted paddy rice plant and Bulrush; assay: Test Example 5: selectivity between transplanted paddy rice plant and weeds; format: in vivo; conditions: (highest dosage with no phytotoxicity to paddy rice)/(lowest dosage with effective level 4 on Bulrush); rice 3000-100 g/ha, Bulrush 300-10 g/ha; 21 days
How it was run: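 Transplanted paddy rice was treated at 3000, 1000, 300 and 100 g/ha active ingredient for phytotoxicity, and post-emergence bulrush at 300, 100, 30 and 10 g/ha. Plants were kept in a hothouse for 21 days. Growth inhibition versus untreated control was scored 0–4 (0%, 1–39%, 40–69%, 70–89%, 90–100%).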

[5] = system: bulrush; assay: Test Example 1: herbicidal efficacy on rice paddy weeds pre-emergence; format: in vivo, Scirpus juncoides; conditions: 21 days
[6] = system: bulrush; assay: Test Example 2: herbicidal efficacy on rice paddy weeds post-emergence; format: in vivo, Scirpus juncoides; conditions: post-emergence, one leaf stage, 21 days after treatment
[7] = system: false pimpernel; assay: as above; format: in vivo, Lindernia pyxidaria; conditions: post-emergence, one leaf stage, 21 days after treatment
[8] = system: barnyard glass; assay: as above; format: in vivo, Echinochloa crus-galli; conditions: post-emergence, one leaf stage, 21 days after treatment
How it was run: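 Plastic pots of 75 cm^2 were filled with clay loam soil and sown with barnyard glass and bulrush seeds, then topped with 75 cm^3 soil containing false pimpernel seeds. The pots were flooded to 5 cm water depth and held in a hot house. Twenty-one days after treatment, herbicidal efficacy was graded against an untreated control.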

[9] = dosage 1000 g/ha, treated 5 days after transplantation

SMILES	Herbicide effect to Bulrush [1]	melting point	False pimpernel pre (herbicidal efficacy grade) ([2]; dosage 1000 g/ha)	Phytotoxicity to paddy rice [3, 9]	Selective Index [4]	Bulrush pre (herbicidal efficacy grade) ([5]; dosage 1000 g/ha)	Bulrush post (herbicidal efficacy grade) ([6]; dosage 1000 g/ha)	False pimpernel post (herbicidal efficacy grade) ([7]; dosage 1000 g/ha)	Burnyard grass post (herbicidal efficacy grade) ([8]; dosage 1000 g/ha)	False pimpernel pre (herbicidal efficacy grade) ([2]; dosage 300 g/ha)	Phytotoxicity to paddy rice ([3]; dosage 300 g/ha)	Bulrush pre (herbicidal efficacy grade) ([5]; dosage 300 g/ha)	Bulrush post (herbicidal efficacy grade) ([6]; dosage 300 g/ha)	False pimpernel post (herbicidal efficacy grade) ([7]; dosage 300 g/ha)	Burnyard grass post (herbicidal efficacy grade) ([8]; dosage 300 g/ha)
CCC1COC(=O)N1Cc1ccccc1NS(=O)(=O)C(F)(F)F (stereo not drawn) [Compound No. 1-5, 4-ethyl-3-[2-(trifluoromethanesulfonylamino)benzyl]-2-oxazolidinone]	4 (90%-100% of herbicidal efficacy or phytotoxicity)	81.4 to 83.6 °C	4 (90%-100% of herbicidal efficacy or phytotoxicity)	2 (40%-69% of herbicidal efficacy or phytotoxicity)	≧10	4 (90%-100% of herbicidal efficacy or phytotoxicity)	4 (90%-100% of herbicidal efficacy or phytotoxicity)	4 (90%-100% of herbicidal efficacy or phytotoxicity)	4 (90%-100% of herbicidal efficacy or phytotoxicity)						
CCC1COC(=O)N1Cc1ccccc1N(C(=O)OCC(C)C)S(=O)(=O)C(F)(F)F (stereo not drawn) [Compound No. 1-6, 4-ethyl-3-{2-[N-(isobutoxycarbonyl)-N-(trifluoromethanesulfonyl)amino]benzyl}-2-oxazolidinone]	3 (70%-89% of herbicidal efficacy or phytotoxicity)	69.3 to 71.7 °C	4 (90%-100% of herbicidal efficacy or phytotoxicity)	1 (1%-39% of herbicidal efficacy or phytotoxicity)	3	4 (90%-100% of herbicidal efficacy or phytotoxicity)	4 (90%-100% of herbicidal efficacy or phytotoxicity)	4 (90%-100% of herbicidal efficacy or phytotoxicity)	4 (90%-100% of herbicidal efficacy or phytotoxicity)						
CC1(C)COC(=O)N1Cc1ccccc1NS(=O)(=O)C(F)(F)F [Compound No. 1-15, 4,4-dimethyl-3-[2-(trifluoromethanesulfonylamino)benzyl]-2-oxazolidinone]	4 (90%-100% of herbicidal efficacy or phytotoxicity)	134.9 °C	4 (90%-100% of herbicidal efficacy or phytotoxicity)	1 (1%-39% of herbicidal efficacy or phytotoxicity)	10	4 (90%-100% of herbicidal efficacy or phytotoxicity)	4 (90%-100% of herbicidal efficacy or phytotoxicity)	4 (90%-100% of herbicidal efficacy or phytotoxicity)	4 (90%-100% of herbicidal efficacy or phytotoxicity)						
CC(C)COC(=O)N(c1ccccc1CN1C(=O)OCC1(C)C)S(=O)(=O)C(F)(F)F [Compound No. 1-16, 4,4-dimethyl-3-{2-[N-(isobutoxycarbonyl)-N-(trifluoromethanesulfonyl)amino]benzyl}-2-oxazolidinone]	4 (90%-100% of herbicidal efficacy or phytotoxicity)	65 to 65.8 °C	4 (90%-100% of herbicidal efficacy or phytotoxicity)	0 (0% of herbicidal efficacy or phytotoxicity)	33	4 (90%-100% of herbicidal efficacy or phytotoxicity)	4 (90%-100% of herbicidal efficacy or phytotoxicity)	4 (90%-100% of herbicidal efficacy or phytotoxicity)	4 (90%-100% of herbicidal efficacy or phytotoxicity)						
CC1CN(Cc2ccccc2NS(=O)(=O)C(F)(F)F)C(=S)O1 (stereo not drawn) [Compound No. 1-21, 5-methyl-3-[2-(trifluoromethanesulfonylamino)benzyl]-2-oxazolidinethione]	4 (90%-100% of herbicidal efficacy or phytotoxicity)	74 to 76 °C	4 (90%-100% of herbicidal efficacy or phytotoxicity)	0 (0% of herbicidal efficacy or phytotoxicity)	33	4 (90%-100% of herbicidal efficacy or phytotoxicity)	4 (90%-100% of herbicidal efficacy or phytotoxicity)	3 (70%-89% of herbicidal efficacy or phytotoxicity)	4 (90%-100% of herbicidal efficacy or phytotoxicity)						
CC(C)COC(=O)N(c1ccccc1CN1C(=O)OC(C)(C)C1=O)S(=O)(=O)C(F)(F)F [Compound No. 1-189, 3-{2-[N-(isobutoxycarbonyl)-N-(trifluoromethanesulfonyl)amino]benzyl}-5,5-dimethyloxazolidine-2,4-dione]	4 (90%-100% of herbicidal efficacy or phytotoxicity)		4 (90%-100% of herbicidal efficacy or phytotoxicity)	1 (1%-39% of herbicidal efficacy or phytotoxicity)	≧10	4 (90%-100% of herbicidal efficacy or phytotoxicity)	4 (90%-100% of herbicidal efficacy or phytotoxicity)	4 (90%-100% of herbicidal efficacy or phytotoxicity)	4 (90%-100% of herbicidal efficacy or phytotoxicity)						
CC1(C)OC(=O)N(Cc2ccccc2NS(=O)(=O)C(F)(F)F)C1O (stereo not drawn) [Compound No. 1-194, 4-hydroxy-5,5-dimethyl-3-[2-(trifluoromethanesulfonylamino)benzyl]oxazolidin-2-one]		88 to 92 °C													
COC1N(Cc2ccccc2N(C(=O)OCC(C)C)S(=O)(=O)C(F)(F)F)C(=O)OC1(C)C (stereo not drawn) [Compound No. 1-197, 3-{2-[N-(isobutoxycarbonyl)-N-(trifluoromethanesulfonyl)-amino]benzyl}-4-methoxy-5,5-dimethyloxazolidin-2-one]	4 (90%-100% of herbicidal efficacy or phytotoxicity)				10					3 (70%-89% of herbicidal efficacy or phytotoxicity)	2 (40%-69% of herbicidal efficacy or phytotoxicity)	4 (90%-100% of herbicidal efficacy or phytotoxicity)	4 (90%-100% of herbicidal efficacy or phytotoxicity)	1 (1%-39% of herbicidal efficacy or phytotoxicity)	4 (90%-100% of herbicidal efficacy or phytotoxicity)
Cc1cn(Cc2ccccc2NS(=O)(=O)C(F)(F)F)c(=O)o1 [Compound No. 1-207, 5-methyl-3-[2-(trifluoromethanesulfonylamino)benzyl]-4-oxazolin-2-one]		120.2 to 121.2 °C								4 (90%-100% of herbicidal efficacy or phytotoxicity)	1 (1%-39% of herbicidal efficacy or phytotoxicity)	4 (90%-100% of herbicidal efficacy or phytotoxicity)	4 (90%-100% of herbicidal efficacy or phytotoxicity)	1 (1%-39% of herbicidal efficacy or phytotoxicity)	0 (0% of herbicidal efficacy or phytotoxicity)
Cc1cn(Cc2ccccc2N(C(=O)OCC(C)C)S(=O)(=O)C(F)(F)F)c(=O)o1 [Compound No. 1-208, 3-{2-[N-(isobutoxycarbonyl)-N-(trifluoromethanesulfonyl)amino]benzyl}-5-methyl-4-oxazolin-2-one]		60.3 to 68.6 °C								4 (90%-100% of herbicidal efficacy or phytotoxicity)	0 (0% of herbicidal efficacy or phytotoxicity)	4 (90%-100% of herbicidal efficacy or phytotoxicity)	4 (90%-100% of herbicidal efficacy or phytotoxicity)	1 (1%-39% of herbicidal efficacy or phytotoxicity)	
